Data published in paper PMC7395068, “The evolution of strategies to minimise the risk of human drug-induced liver injury (DILI) in drug discovery and development” (Archives of Toxicology, 2020).
Read-outs that look alike come from different tables or passages of the source.

Tests used:
[1] = system: HepG2 cells, primary human hepatocytes; conditions: In vitro Assay; ref Garside 2014; cited from earlier work
Upcyte human hepatocytes = conditions: In vitro Assay; ref Tolosa 2019; cited from earlier work
rBsep = conditions: In vitro Assay; ref Dawson 2012; cited from earlier work
human hepatocytes = conditions: cited from earlier work; for Structural based (HCI): In vitro Assay, ref Xu 2008
[2] = cited from earlier work
HepG2 cells [3] = conditions: cited from earlier work
HepG2 cells [4] = conditions: cited from earlier work; for Structural based (HCI): In vitro Assay, ref O'Brien 2006
[5] = system: THLE-Null and THLE-3A4 cells; conditions: In vitro Assay; ref Gustafsson 2014; cited from earlier work
[6] = system: THLE or HepG2 cells, isolated mitochondria, BSEP; conditions: cited from earlier work
hLiMTs [7] = conditions: cited from earlier work
[8] = Plasma free fraction (fu) and unbound Cmax (Cmax,u); assay type: in vitro ADME, human; conditions: unbound plasma Cmax
Method: The prediction of DILI severity was evaluated further using the 3D combined HCI assays using plasma-free fraction. The majority of fu values were obtained from literature, when unavailable in-house prediction was utilised. Unbound plasma Cmax concentrations (Cmax,u) were derived by multiplying total plasma Cmax with the corresponding free fraction (fu) for each compound.

HepaRG spheroids = experiment: Combined HCI (HCS) and cellular ATP 3D assay in HepaRG spheroids
HepG2 cells [9] = conditions: cited from earlier work; remark: listed apart in the source
[10] = plasma free fraction; cited from earlier work
PHH = conditions: cited from earlier work
[11] = read-out: Human plasma Cmax; total plasma Cmax.tot, median of 9 literature references; cited from earlier work
hLiMTs [12] = experiment: Combined HCI (HCS) and cellular ATP 3D assay in hLiMTs
[13] = system: isolated mouse liver mitochondria; conditions: In vitro Assay; ref Porceddu 2012; cited from earlier work
[14] = cited from earlier work; remark: listed apart in the source
[15] = Modeled in vitro assays (cytotoxicity, mitochondrial dysfunction, BSEP), ref Aleo et al. 2019
[16] = In vitro Assay, ref Proctor 2017
[17] = Microtissue model structural based (HCI), combined HCS and ATP, MEC < 25 × Cmax.tot cut-off
[18] = In vitro Assay, ref Persson 2013

SMILES: CN1CCC(=C2c3ccccc3CC(=O)c3sccc32)CC1 [ketotifen, reference compound]
- Cluster 1-6 +VE Assay [1]: +VE
- Upcytes multi donor assay 14day data (Upcyte human hepatocytes): +VE
- Inhibition of rBsep cutoff<1& cmax u>.2 (rBsep): -VE
- Inhibition of rBsep cutoff<3 (rBsep): -VE
- Structural based (HCI) (human hepatocytes): -VE
- In vivo DILI ([2]; ref Dawson 2012): -VE
- In vivo DILI ([2]; ref Garside 2014): +VE
- In vivo DILI ([2]; ref Gustafsson 2014): +VE
- In vivo DILI ([2]; ref O'Brien 2006): -VE
- In vivo DILI ([2]; ref Tolosa 2012): -VE
- In vivo DILI ([2]; ref Tolosa 2019): +VE
- In vivo DILI ([2]; ref Xu 2008): -VE
- Structural based (HCI) (HepG2 cells [3]; In vitro Assay, ref Tolosa 2012): +VE
- DILI in vitro assay prediction, Tolosa (2012) (HepG2 cells [3]; Structural based (HCI), HepG2, ref Tolosa et al. 2012): false-positive
- Structural based (HCI) (HepG2 cells [4]): -VE
- THLE-Null [5]: -VE
- THLE-Null/3A4 [5]: -VE

SMILES: [H]/N=C(/N)N[C@H]1[C@H](O)[C@@H](O)[C@H](O[C@@H]2O[C@@H](C)[C@](O)(C=O)[C@H]2O[C@@H]2O[C@@H](CO)[C@H](O)[C@@H](O)[C@@H]2NC)[C@@H](N/C(N)=N\[H])[C@@H]1O [streptomycin, reference compound]
- Partition Hybrid HRM Score ([6]; In vitro Assay, ref Aleo 2019): -VE
- Ro2 Hybrid HRM Score ([6]; In vitro Assay, ref Aleo 2019): -VE
- Partition Hybrid HRM Score ≥4, Aleo (2019) [6, 15]: -VE
- Partition Hybrid HRM Score ≥8, Aleo (2019) [6, 15]: -VE
- Rule of Two hybrid HRM Score ≥3, Aleo (2019) [6, 15]: -VE
- Rule of Two hybrid HRM Score ≥8, Aleo (2019) [6, 15]: -VE
- hLiMTs ATP <100uM (hLiMTs [7]; [16]): -VE
- hLiMTs/100xCmax, Proctor (2017) (hLiMTs [7]; hLiMTs, ATP, IC50 < 100 × Cmax.tot, ref Proctor et al. 2017): -VE
- hLiMTs/100uM, Proctor (2017) (hLiMTs [7]; hLiMTs, ATP, IC50 threshold 100 µM, ref Proctor et al. 2017): -VE
- Human plasma Cmax,u [8]: 41.912 µM
- Cluster 1-6 +VE Assay [1]: -VE
- HepaRG <25x Avg Cmax ATP (HepaRG spheroids; HepaRG, ATP endpoint, cut-off <25x Avg Cmax): -ve
- HepaRG <100x Avg Cmaxu ATP (HepaRG spheroids; HepaRG, ATP endpoint, cut-off <100x Avg Cmaxu): +ve (<100x Avg Cmaxu)
- HepaRG <25x Avg Cmax HCS (HepaRG spheroids; HepaRG, HCS endpoints, cut-off <25x Avg Cmax): -ve
- HepaRG <100x Avg Cmaxu HCS (HepaRG spheroids; HepaRG, HCS endpoints, cut-off <100x Avg Cmaxu): +ve (<100x Avg Cmaxu)
- HepaRG <25x Avg Cmax All (HepaRG spheroids; HepaRG, all endpoints (ATP and HCS), cut-off <25x Avg Cmax): -ve
- HepaRG Cmax max All (HepaRG spheroids; HepaRG, all endpoints, Cmax max used): -ve
- HepaRG Cmax min All (HepaRG spheroids; HepaRG, all endpoints, Cmax min used): -ve
- HepaRG <10 uM All (HepaRG spheroids; HepaRG, all endpoints, cut-off <10 uM): -ve
- HepaRG <100x Avg Cmaxu All (HepaRG spheroids; HepaRG, all endpoints, cut-off <100x Avg Cmaxu): +ve (<100x Avg Cmaxu)
- AC50 (HepaRG spheroids; Homo sapiens, HepaRG, read-out: ATP endpoint AC50): 3650 µM
- minimal effective concentration (HepaRG spheroids; Homo sapiens, HepaRG, read-out: ATP endpoint MEC): 2830 µM
- minimal effective concentration (HepaRG spheroids; Homo sapiens, HepaRG, read-out: HCS endpoint MEC): 3140 µM
- DILI prediction HepaRG spheroids (HCS-MEC) (HepaRG spheroids; [17]): -VE
- Upcytes multi donor assay 14day data (Upcyte human hepatocytes): -VE
- Cluser analysis (HepG2 cells [9]; [18]): -VE
- Structural based (HCI) (HepG2 cells [9]; [18]): -VE
- DILI in vitro assay prediction, Persson (2013) (HepG2 cells [9]; Structural based (HCI), HepG2, ref Persson et al. 2013): -VE
- Inhibition of rBsep cutoff<1& cmax u>.2 (rBsep): -VE
- Inhibition of rBsep cutoff<3 (rBsep): -VE
- fu [10]: 0.650
- Structural based (HCI) (human hepatocytes): -VE
- DILI in vitro assay prediction, Xu (2008) (human hepatocytes; Structural based (HCI), human hepatocytes, ref Xu et al. 2008): -VE
- Assigned DILI category ([2]; Chen et al. 2016 or literature alignment, ref Chen et al. 2016): 1
- In vivo DILI ([2]; ref Aleo 2019): -VE
- In vivo DILI ([2]; ref Dawson 2012): -VE
- In vivo DILI ([2]; ref Garside 2014): -VE
- In vivo DILI ([2]; ref Gustafsson 2014): -VE
- In vivo DILI ([2]; ref O'Brien 2006): -VE
- In vivo DILI ([2]; ref Persson 2013): -VE
- In vivo DILI ([2]; ref Porceddu 2012): +VE
- In vivo DILI ([2]; ref Proctor 2017): -VE
- In vivo DILI ([2]; ref Tolosa 2019): -VE
- In vivo DILI ([2]; ref Xu 2008): -VE
- PHH/100xCmax, Proctor (2017) (PHH; 2D PHH, ATP, IC50 < 100 × Cmax.tot, ref Proctor et al. 2017): -VE
- PHH/100uM, Proctor (2017) (PHH; 2D PHH, ATP, IC50 threshold 100 µM, ref Proctor et al. 2017): -VE
- PHH ATP <100uM (PHH; [16]): -VE
- Structural based (HCI) (HepG2 cells [4]): +VE
- DILI in vitro assay prediction, O'Brien (2006) (HepG2 cells [4]; Structural based (HCI), HepG2, ref O'Brien et al. 2006): +VE (lowest HCI endpoint IC50 (or in the absence of dose–response < 100 µM) < 30 × total human plasma exposure levels (Cmax.tot))
- Cmax [11]: 64.5 µM
- THLE-Null [5]: -VE
- THLE-Null/3A4 [5]: -VE
- AC50 (hLiMTs [12]; Homo sapiens, read-out: ATP endpoint AC50): 1960 µM
- minimal effective concentration (hLiMTs [12]; Homo sapiens, read-out: ATP endpoint MEC): 1700 µM
- DILI prediction hLiMTs (HCS-MEC) (hLiMTs [12]; [17]): -VE
- hLiMTs <25x Avg Cmax ATP (hLiMTs [12]; hLiMTs, ATP endpoint, cut-off <25x Avg Cmax): -ve
- hLiMTs <100x Avg Cmaxu ATP (hLiMTs [12]; hLiMTs, ATP endpoint, cut-off <100x Avg Cmaxu): +ve (<100x Avg Cmaxu)
- hLiMTs <25x Avg Cmax HCS (hLiMTs [12]; hLiMTs, HCS endpoints, cut-off <25x Avg Cmax): -ve
- hLiMTs <100x Avg Cmaxu HCS (hLiMTs [12]; hLiMTs, HCS endpoints, cut-off <100x Avg Cmaxu): -ve
- hLiMTs <25x Avg Cmax All (hLiMTs [12]; hLiMTs, all endpoints (ATP and HCS), cut-off <25x Avg Cmax): -ve
- hLiMTs Cmax max All (hLiMTs [12]; hLiMTs, all endpoints, Cmax max used): -ve
- hLiMTs Cmax min All (hLiMTs [12]; hLiMTs, all endpoints, Cmax min used): -ve
- hLiMTs <10 uM All (hLiMTs [12]; hLiMTs, all endpoints, cut-off <10 uM): -ve
- hLiMTs <100x Avg Cmaxu All (hLiMTs [12]; hLiMTs, all endpoints, cut-off <100x Avg Cmaxu): +ve (<100x Avg Cmaxu)
- in vitro data EC2<=1x Cmax [13]: +VE
- in vitro data EC20<=2uM [13]: -VE
- DILI severity category (Chen et al. [2016]) ([14]; LTKB DILIrank category, ref Chen et al. 2016): No
- DILI severity category (Chen 2016) ([14]; human DILI classification, LTKB DILIrank, ref Chen et al. 2016): No
- DILI severity category ([14]; human DILI severity, ref Chen et al.): No
- DILI +VE (5-8), DILI -VE (-4) ([14]; ref Chen 2016): -VE
- DILI severity category ([14]; ref Chen 2016): vNo-DILI-Concern
